Reference: article PMC8151276, “An Integrated Approach toward NanoBRET Tracers for Analysis of GPCR Ligand Engagement” (Molecules, 2021)

Target: T1, FPR2 (Homo sapiens, UniProt P25090)
T1 construct: purchased Promega (in-house HiBiT-GPCR construct library, NanoBRET)
T1 sequence (P25090 1-351): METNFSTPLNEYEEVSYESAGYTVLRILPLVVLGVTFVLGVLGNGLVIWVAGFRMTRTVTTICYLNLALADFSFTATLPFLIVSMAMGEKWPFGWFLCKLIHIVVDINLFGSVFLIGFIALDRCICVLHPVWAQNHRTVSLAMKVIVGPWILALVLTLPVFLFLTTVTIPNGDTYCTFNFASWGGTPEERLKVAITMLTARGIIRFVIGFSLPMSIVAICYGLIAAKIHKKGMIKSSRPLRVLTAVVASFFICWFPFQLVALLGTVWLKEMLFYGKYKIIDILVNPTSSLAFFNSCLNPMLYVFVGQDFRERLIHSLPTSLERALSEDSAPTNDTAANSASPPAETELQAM
Test: NanoBRET screen HiBiT-FPR2 in HEK293
Format: binding
Procedure: Each tracer candidate was screened across the entire library of HiBiT-GPCR constructs using NanoBRET as the detection modality. As depicted in Figure 4A, the specificity of interactions was evaluated through decrease in BRET due to competitive displacement of a bound tracer by excess parental compound. Each tracer was analyzed for binding to each HiBiT-GPCR fusion in the absence and in the presence of competing parental compound. Briefly, HEK293 cells were transfected with HiBiT-GPCR constructs diluted into promoterless DNA to reduce expression and maximize translocation to the cell surface. Each tracer candidate was then screened at concentrations of 1 μM and 0.1 μM across cells expressing these fusions. Cells were treated for 1.5 h with tracer either alone or in the presence of 20 μM competing parental compound (i.e., control). BRET was measured upon addition of purified LgBiT and subsequent complementation with HiBiT genetically fused to a GPCR. The specificity of interactions was assessed through a decrease in BRET signal due to competitive displacement of the bound tracer. To further gauge the robustness of these interactions, the fold response over the control (i.e., BRETtracer/BRETcontrol) was calculated. We chose a 1.5-fold response, which translates to ≥7-fold signal over noise as the minimal threshold required to score an interaction as positive. […]. Below we highlight the screening results obtained for our exemplary fluorescent tracers based on Clozapine, Amitriptyline and AZD1283.
HiBiT-GPCR DNA constructs were diluted in 10 mM Tris pH 8 to a final concentration of 0.01 μg/μL, arrayed in 96-well plates and stored at −20 °C. For transfection, HEK293 cells were suspended in Opti-MEM (without phenol red) supplemented with 2% fetal bovine serum (Seradigm) and 100 units/mL penicillin–streptomycin (Gibco) at a final concentration of 220,000 cells/mL and dispensed into white 96-well plates at 90 μL/well. Subsequent transfections and screens were carried using an Agilent Bravo Automated Liquid Handling Platform. First, the 96-well HiBiT DNA arrays were diluted 25-fold in Opti-MEM (without serum or phenol red) to a final concentration of 0.0004 μg/μL and 20 μL of the diluted DNAs were transferred into new 96-well plates. Next, promoterless carrier DNA (1 μg/μL) was diluted 25-fold (0.04 μg/μL) and then dispensed into the diluted arrays at 20 μL/well. Following brief mixing, Viafect transfection reagent (Promega) diluted 16-fold into Opti-MEM was dispensed into the plates at 40 μL/well. After mixing by pipetting, plates were incubated for 10 min on the pipetting station deck. The DNA-transfection reagent complexes were then added to plates containing cells. To facilitate the screen, 10 μL of DNA-transfection reagent complexes were added in duplicates to the top 4 and bottom 4 rows, resulting in two identical 48-well arrays per plate. Plates with transfected cells were incubated for 18–20 h at 37 °C/5% CO2. A screen of each tracer across the entire library using two different concentrations requires duplicate plates of transfected cells. Depending on the number of tracers being screened, transfections can be scaled up using the same ratios. The next day, for each tracer, four 20× screening solutions in tracer dilution buffer (Promega) were prepared: two duplicates at final concentration of 20 μM and two duplicates at a final concentration of 2 μM. A competing unmodified compound was added to one of each duplicate at a final concentration of 400 μM. The four resulting solutions were diluted 4-fold in Opti-MEM without serum or phenol red to generate 5× solutions (5 µM and 0.5 µM tracer +/− 100 μM competing compound). To screen the library, a BioTek MultiFlo FX liquid dispenser was used to dispense 22.5 µL of tracer solution to the top 4 rows and 22.5 µL tracer + competing compound solution to the 4 bottom rows. Plates were briefly mixed on an orbital shaker and incubated for 1.5 h at room temperature. […]

Row | Structure (SMILES) | NanoBRET Fold Response (FPR2, tracer 0.1μM) | NanoBRET Fold Response (FPR2, tracer 1μM) | other results
1 | O=C(CCc1ccc2n1[B-](F)(F)[N+]1=C(c3ccc[nH]3)C=CC1=C2)NCc1ccc(C(=O)NCCOCCC(=O)N[C@@H]2CC[C@@]3(O)[C@H]4Cc5ccc(O)c6c5[C@@]3(CCN4CC3CC3)[C@H]2O6)cc1 [Naltrexone-3-NB590] | 0.87 | 0.66 | –
2 | CN1CCN(C2=Nc3cc(Cl)ccc3N(CC(=O)NCCOCCOCCOCCOCCNC(=O)CCc3ccc4n3[B-](F)(F)[N+]3=C(c5ccc[nH]5)C=CC3=C4)c3ccccc32)CC1 [Clozapine-c-2-NB590] | – | – | NanoBRET Fold Response (FPR2, 0.1μM tracer): 1.00; NanoBRET Fold Response (FPR2, 1μM tracer): 0.89
3 | O=C(CCOCCOCCOCCOCCNC(=O)CCc1ccc2n1[B-](F)(F)[N+]1=C(c3ccc[nH]3)C=CC1=C2)NCCCN1CCN(C2=Nc3cc(Cl)ccc3Nc3ccccc32)CC1 [Clozapine-a-2-NB590] | – | – | NanoBRET Fold Response (FPR2, 0.1μM tracer): 0.91; NanoBRET Fold Response (FPR2, 1μM tracer): 1.34
4 | CCOC(=O)c1cc(C#N)c(N2CCC(C(=O)NS(=O)(=O)Cc3ccccc3/C=C/C(=O)NCCNC(=O)CCc3ccc4n3[B-](F)(F)[N+]3=C(c5ccc[nH]5)C=CC3=C4)CC2)nc1C [AZD1283-1-NB590] | – | – | NanoBRET Fold Response (FPR2, 0.1μM): 0.99; NanoBRET Fold Response (FPR2, 1μM): 1.04
5 | COc1ccc2[nH]c(-c3ccc(CNC(=O)CCOCCOCCOCCOCCNC(=O)CCc4ccc5n4[B-](F)(F)[N+]4=C(c6ccc[nH]6)C=CC4=C5)cc3)c(CCNC(C)=O)c2n1 [AzomelatoninICO9-2-NB590] | – | – | NanoBRET Fold Response (0.1μM tracer): 0.74; NanoBRET Fold Response (1μM tracer): 1.09
6 | CCCn1c(=O)c2[nH]c(-c3ccc(OCC(=O)NCCNC(=O)CCOCCNC(=O)c4ccc(CNC(=O)CCc5ccc6n5[B-](F)(F)[N+]5=C(c7ccc[nH]7)C=CC5=C6)cc4)cc3)nc2n(CCC)c1=O [XAC-3-NB590] | 0.89 | 0.95 | –
7 | COc1ccccc1N1CCN(CCCCN2C(=O)c3ccc(CNC(=O)CCOCCNC(=O)c4ccc(CNC(=O)CCc5ccc6n5[B-](F)(F)[N+]5=C(c7ccc[nH]7)C=CC5=C6)cc4)cc3C2=O)CC1 [NAN-190-3-NB590] | 1.35 | 0.77 | –
8 | O=C(CCc1ccc2n1[B-](F)(F)[N+]1=C(c3ccc[nH]3)C=CC1=C2)NCc1ccc(C(=O)NCCOCCOCCNCC(O)COc2cccc3ccccc23)cc1 (stereo not drawn) [Propranolol-3-NB590] | – | – | NanoBRET Fold Response (FPR2, 0.1μM): 1.02; NanoBRET Fold Response (FPR2, 1μM): 1.12
9 | COc1ccc2c(n1)c(CCNC(C)=O)cn2CCNC(=O)CCc1ccc2n1[B-](F)(F)[N+]1=C(c3ccc[nH]3)C=CC1=C2 [Azamelatonin-1-NB590] | – | – | NanoBRET Fold Response (0.1μM tracer): 0.96; NanoBRET Fold Response (1μM tracer): 1.50
10 | O=C(CCOCCOCCOCCOCCNC(=O)CCc1ccc2n1[B-](F)(F)[N+]1=C(c3ccc[nH]3)C=CC1=C2)NCCCN1CCN(C2=Nc3ccccc3Oc3ccc(Cl)cc32)CC1 [Loxapine-a-2-NB590] | 0.81 | 0.85 | –
11 | COc1ccccc1N1CCN(CCCCN2C(=O)c3ccc(CNC(=O)CCOCCOCCOCCOCCNC(=O)CCc4ccc5n4[B-](F)(F)[N+]4=C(c6ccc[nH]6)C=CC4=C5)cc3C2=O)CC1 [NAN-190-2-NB590] | 0.56 | 1.20 | –
12 | CC(C)N(CC[C@H](c1ccccc1)c1cc(CCNC(=O)c2ccc(CNC(=O)CCc3ccc4n3[B-](F)(F)[N+]3=C(c5ccc[nH]5)C=CC3=C4)cc2)ccc1O)C(C)C [Tolterodine-BZ-NB590] | 0.95 | 0.95 | –
13 | O=C(CCc1ccc2n1[B-](F)(F)[N+]1=C(c3ccc[nH]3)C=CC1=C2)NCCOCCOCCNC(=O)OCCOCCN1CCN(C2=Nc3ccccc3Sc3ccccc32)CC1 [Quetiapine-a-2-NB590] | 1.06 | 0.82 | –
14 | CN1CCN(C2=Nc3cc(Cl)ccc3Nc3ccc(CNC(=O)CCOCCOCCOCCOCCNC(=O)CCc4ccc5n4[B-](F)(F)[N+]4=C(c6ccc[nH]6)C=CC4=C5)cc32)CC1 [Clozapine-b-2-NB590] | – | – | NanoBRET Fold Response (FPR2, 0.1μM tracer): 0.78
15 | CC(C)N(CC[C@H](c1ccccc1)c1cc(CCNC(=O)CCOCCOCCOCCOCCNC(=O)CCc2ccc3n2[B-](F)(F)[N+]2=C(c4ccc[nH]4)C=CC2=C3)ccc1O)C(C)C [Tolterodine-2-NB590] | 1.07 | 0.71 | –
16 | CN(C)CCC=C1c2ccccc2CCc2ccc(C(=O)NCCNC(=O)CCOCCOCCOCCOCCNC(=O)CCc3ccc4n3[B-](F)(F)[N+]3=C(c5ccc[nH]5)C=CC3=C4)cc21 [Amitriptyline-a-2-NB590] | – | – | NanoBRET Fold Response (tracer at 0.1μM): 0.96; NanoBRET Fold Response (tracer at 1μM): 1.05
17 | Cc1cc2c(s1)Nc1ccccc1N=C2N1CCN(CCCNC(=O)CCOCCOCCOCCOCCNC(=O)CCc2ccc3n2[B-](F)(F)[N+]2=C(c4ccc[nH]4)C=CC2=C3)CC1 [Olanzapine-a-2-NB590] | 0.70 | 0.80 | –
18 | N#CN=C(NCCCOc1cccc(CN2CCCCC2)c1)NCCNC(=O)CCOCCOCCOCCOCCNC(=O)CCc1ccc2n1[B-](F)(F)[N+]1=C(c3ccc[nH]3)C=CC1=C2 [Aminopotentidine-2-NB590] | 0.95 | 1.10 | –
19 | Cc1nc2n(c(=O)c1CCN1CCC(c3noc4cc(F)ccc34)CC1)CCCC2OC(=O)NCCOCCOCCOCCOCCNC(=O)CCc1ccc2n1[B-](F)(F)[N+]1=C(c3ccc[nH]3)C=CC1=C2 (stereo not drawn) [Risperidone-2-NB590] | 0.94 | 0.95 | –
20 | CN(C)CCC=C1c2ccccc2CCc2ccc(C(=O)NCCNC(=O)CCOCCOCCOCCOCCNC(=O)CCc3ccc4n3[B-](F)(F)[N+]3=C(c5ccc[nH]5)C=CC3=C4)cc21 [Amitriptyline-b-2-NB590] | – | – | NanoBRET Fold Response (tracer at 0.1μM, listed as amitriptyline-b-2-NB590): 0.88; NanoBRET Fold Response (tracer at 1μM): 0.99
